Data on five compounds can be found in patent US6380255B1, “Treatment for dermal skin atrophy using thyroid hormone compounds or thyroid hormone-like compounds” (Karo Bio AB, priority 1995, dated 2002).

Values joined by “and” are separate entries in the source; they are usually repeats but may differ in a detail not shown here. Equal entries are not always repeated.

The data set concerns Balb/c mice. The experiment in a line: Prevention of glucocorticoid (betamethasone)-induced dermal atrophy in normal mice, dermis thickness in Van Gieson stained biopsies. Format: in vivo, mouse. The following applies: for Thickness of dermis (mm) in 5 low power fields (×10) / Thickness of dermis, mean (mm): one week. The text has this:
Normal Balb/c mice were used for the experiments. […] Therefore each averaged measurement represents 25 determinations.
In FIGS. 1-3, the arrows show the dermal layer which is predominantly collagen fibers.

Setting [1] is: Bet. 0.2 mM + 0.0008 mM test compound, topical daily.
The mark [2] stands for this setting: Bet. 0.2 mM + 0.008 mM test compound, topical daily.
The mark [3] stands for this setting: Bet. 0.2 mM + 0.08 mM test compound, topical daily.
Where [4] appears, read: Bet. 0.2 mM + 0.8 mM test compound, topical daily.

Turning to `O=C(O)CCc1cc(I)c(Oc2ccc(O)c(I)c2)c(I)c1` [TriProp], the “Thickness of dermis (mm) in 5 low power fields (×10)” value (“Thickness of dermis (mm)” for short) runs as follows: under setting [1], 0.41 mm and 0.40 mm and 0.46 mm; under setting [2], 0.45 mm and 0.50 mm and 0.40 mm and 0.42 mm and 0.48 mm; under setting [3], 0.50 mm and 0.48 mm and 0.47 mm and 0.44 mm; under setting [4], 0.50 mm and 0.45 mm and 0.47 mm and 0.48 mm and 0.52 mm. Moreover, the “Thickness of dermis, mean (mm)” value is 0.42 mm under setting [1], 0.45 mm under setting [2], 0.48 mm under setting [3] and 0.48 mm under setting [4].
For `C[C@H]1C[C@H]2[C@@H]3CCC4=CC(=O)C=C[C@]4(C)[C@@]3(F)[C@@H](O)C[C@]2(C)[C@@]1(O)C(=O)CO` [Betamethasone, betamethasone, reference compound], the “Thickness of dermis, mean (mm)” value is, setting by setting: (Bet. 0.2 mM + placebo cr. (hydrophilic cream)) 0.40 mm; (Betamethasone 0.2 mM alone, 100 μl topical daily) 0.37 mm and 0.42 mm. Under “Bet. 0.2 mM + placebo cr. (hydrophilic cream), listed as Bet.”, the “Thickness of dermis (mm)” value was 0.40 mm and 0.42 mm and 0.38 mm and 0.39 mm. In addition, the “Appearance of dermis in biopsy micrograph (FIG. 1)” value (betamethasone alone for one week) is listed as “very thinned”.
`CC(C)c1cc(Oc2c(Br)cc(Cc3nnn[nH]3)cc2Br)ccc1O` [KB-067, 4-[2,6-dibromo-4-(1H-tetrazol-5-ylmethyl)-phenoxy]-2-isopropyl-phenol]: the “Thickness of dermis (mm)” value reads like this: under setting [1], 0.42 mm and 0.39 mm and 0.40 mm; under setting [2], 0.40 mm and 0.39 mm and 0.41 mm; under setting [3], 0.40 mm and 0.41 mm and 0.39 mm; under setting [4], 0.45 mm and 0.46 mm and 0.47 mm and 0.48 mm. Besides, the “Thickness of dermis, mean (mm)” value came out at 0.40 mm under setting [1], 0.40 mm under setting [2], 0.40 mm under setting [3] and 0.46 mm under setting [4].
Regarding `OCc1cc(I)c(Oc2ccc(O)c(I)c2)c(I)c1` [KB-026, 4-(4-hydroxymethyl-2,6-diiodophenoxy)-2-iodo-phenol], the “Thickness of dermis (mm)” value was 0.40 mm and 0.41 mm and 0.42 mm under setting [1]; 0.45 mm and 0.42 mm and 0.46 mm and 0.44 mm under setting [2]; 0.44 mm and 0.50 mm and 0.49 mm and 0.46 mm under setting [3]; 0.50 mm and 0.52 mm and 0.48 mm and 0.51 mm under setting [4]. Also, the “Thickness of dermis, mean (mm)” value is recorded as 0.41 mm under setting [1], 0.44 mm under setting [2], 0.48 mm under setting [3] and 0.50 mm under setting [4].
`O=C(O)Cc1cc(I)c(Oc2ccc(O)c(I)c2)c(I)c1` [TriAc, [4-(4-hydroxy-3-iodophenoxy)-3,5-diiodophenyl]acetic acid]: the “Thickness of dermis (mm)” value is 0.72 mm and 0.82 mm and 0.84 mm and 0.76 mm (0.8 mM test compound alone (no betamethasone)); 0.40 mm and 0.36 mm and 0.38 mm under setting [1]; 0.40 mm and 0.44 mm under setting [2]. Moreover, the “Thickness of dermis, mean (mm)” value is, setting by setting: under setting [1], 0.38 mm; under setting [2], 0.45 mm. The “Appearance of dermis in biopsy micrograph (FIG. 3)” value (Triac alone for one week) is “very dense and thicker than that shown in FIG. 2”. Also, for the setting “range 0.0008 to 8 mM”, the “Concentration at which the effect on betamethasone-induced atrophy saturates” value is recorded as “approximately 0.8 mM”.
